How the values were obtained:
[1] = Average particle size and PDI by dynamic light scattering (Zetasizer Nano ZS); format: physicochemical
Description: The average particle size (number-average value) and PDI in PBS(−) and zeta potential in 10 mM HEPES buffer solution (pH 7.4) of lipid nanoparticles were measured using “Zetasizer Nano ZS ZEN3600”, an analyzer utilizing dynamic light scattering (manufactured by Malvern).

[2] = pKa of lipid nanoparticles by TNS (section II); format: physicochemical; conditions: F7siRNA-loaded LNP; compared with LNP of straight-chain CL4H6 or CL15H6 (FIG. 1)
Description: The pKa of lipid nanoparticles was measured using p-toluidino-2-naphthalenesulfonic acid (TNS). First, TNS (final concentration: 0.75 μM) and lipid nanoparticles (final concentration: […]) were mixed in buffer solution adjusted to each pH. The fluorescence intensity of the prepared mixture was measured with a microplate reader. The highest and lowest values among the measured values were taken as 100% and 0% charge rates respectively, and the pH indicating 50% charge rate was calculated as pKa.

[3] = Nucleic acid encapsulation rate by Ribogreen (section II); format: physicochemical; conditions: for % mRNA encapsulation: NlucmRNA-loaded LNP, 60:10:40:1; for % pDNA encapsulation: pFluc-loaded LNP
Description: The encapsulation rates of siRNA, mRNA, and pDNA of lipid nanoparticles were measured using Ribogreen (manufactured by life technologies).

[4] = test system: F7; test: In vivo F7 knockdown, plasma F7 enzyme activity, ICR mice; conditions: i.v. 0.003-0.1 mg siRNA/kg, plasma at 24 hours, compared with LNP of CL4H6 or CL15H6 (FIG. 2)
Description: Then, each prepared F7siRNA-loaded lipid nanoparticles were administered to ICR mice (4 weeks old, female) and in vivo F7 knockdown activity was examined.
Specifically, each F7siRNA-loaded lipid nanoparticles were intravenously administered to ICR mice at 0.003-0.1 mg siRNA/kg, and plasma F7 enzyme activity at 24 hours later was measured. Relative plasma F7 enzyme activity (%) of mice administered each F7siRNA-loaded lipid nanoparticles was calculated using plasma F7 enzyme activity of untreated mice as 100%. FIG. 2(B) is the results of intravenous administration of each F7siRNA-loaded lipid nanoparticle at 0.1 mg siRNA/kg.

[5] = Average particle size (ζ-Average) and PDI by dynamic light scattering (Zetasizer Nano ZSP); format: physicochemical
In short: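 Dynamic light scattering of the particles in PBS(−) gave both the polydispersity index and the ζ-Average mean size.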

[6] = siRNA/mRNA encapsulation rate by Ribogreen reagent (section IV); format: physicochemical; conditions: for % siRNA encapsulation: F7siRNA-loaded LNP, 50:10:38.5:1.5, N/P ratio 6; for % mRNA encapsulation: FlucmRNA-loaded LNP, 50:10:38.5:1.5
In short: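 Encapsulation % was calculated as (total − surface nucleic acid)/total × 100, with both values measured by RiboGreen fluorescence at 485/528 nm. Total RNA was read on LNPs lysed with 1% Triton X-100 at 1.2 μg/mL, and surface RNA on intact LNPs at 8 μg/mL in TE buffer. Concentrations came from a 0-2.5 μg/mL Triton-containing calibration curve.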

[7] = test system: liver; test: In vivo Fluc activity of FlucmRNA-loaded LNP by in vivo imaging, liver; conditions: Balb/c mice, FlucmRNA-loaded LNP i.v. 0.1 mg mRNA/kg, 6 hours
In short: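 Read-out is average radiance (p/s/cm2/sr, about 560 nm) from whole-animal imaging of liver and spleen 6 h post-dose, after tail-vein luciferin at 1.5 mg/mouse. Dosing was intravenous, 0.1 mg mRNA/kg, in 7-week-old female Balb/c mice.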

[8] = Storage stability of FlucmRNA-loaded LNP at −80, 5, 25 and 40° C.; format: physicochemical; conditions: for period for which quality remained good, −80° C.: maximum storage period 1 week; for period for which quality remained good, 5° C. / period for which quality remained good, 25° C. / period for which quality remained good, 40° C. (weeks): maximum storage period 5 weeks
In short: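 Reported period is how long all three criteria hold: encapsulation rate at 80% or more, PDI of 0.2 or less, and mean particle size within +/−20 nm of day-of-preparation value. Particle size, PDI and nucleic acid encapsulation were tracked over time at storage temperatures of −80, 5, 25 and 40° C.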

[9] = NlucmRNA-loaded LNP, 60:10:40:1
[10] = NlucmRNA-loaded LNP, lipid:DSPC:cholesterol:PEG-DMG 60:10:40:1
[11] = pFluc-loaded LNP, 50:10:40:1.5, N/P ratio 6
[12] = pFluc-loaded LNP, 50:10:40:1.5, N/P ratio 9
[13] = F7siRNA-loaded LNP, 50:10:38.5:1.5, N/P ratio 6
[14] = FlucmRNA-loaded LNP, 50:10:38.5:1.5
[15] = FlucmRNA-loaded LNP, lipid:DSPC:cholesterol:DMG-PEG2K 50:10:38.5:1.5

PdI [1, 9] | ζ-Average (nm) [1, 10] | ζ-Average (nm) [1, 11] | ζ-Average (nm) [1, 12] | PdI ([1]; pFluc-loaded LNP, N/P ratio 6) | PdI ([1]; pFluc-loaded LNP, N/P ratio 9) | pKa of lipid nanoparticle, compared [2] | % mRNA encapsulation [3] | % pDNA encapsulation ([3]; N/P ratio 6) | % pDNA encapsulation ([3]; N/P ratio 9) | PDI [5, 13] | ζ-Average (nm) [5, 13] | PDI [5, 14] | ζ-Average (nm) [5, 15] | % siRNA encapsulation [6] | % mRNA encapsulation [6] | period for which quality remained good, −80° C. [8] | period for which quality remained good, 5° C. [8] | Structure (SMILES) | in vivo F7 knockdown activity, compared [4] | Fluc Activity in liver [7] | other results
0.13 | 109.6 nm | 74.48 nm | 90.6 ± 7 nm | 0.11 | 0.19 ± 0.05 | lower pKa | 91.7% | 97.6% | 94.5 ± 3.6% | 0.048 | 85.14 nm | 0.030 | 81.21 nm | 100.1% | 99.8% | 1 week | 5 weeks | CCCN(CCC)CCCCC(O)(CCCCCCOC(=O)C(CCC(C)CC(C)(C)C)C(C)CC(C)(C)C)CCCCCCOC(=O)C(CCC(C)CC(C)(C)C)C(C)CC(C)(C)C (centres unmarked) [CL4G6, 7-(4-(dipropylamino)butyl)-7-hydroxytridecan-1,13-diyl bis(2-(4.4-dimethylpentan-2-yl)-5,7,7-trimethyloctanoate)] | equivalent in vivo F7 knockdown activity | 4.58E+07 Avg Radiance [p/s/cm2/sr] | period for which quality remained good, 25° C. [8]: 5 weeks; period for which quality remained good, 40° C. (weeks) [8]: 5 weeks
0.162 | 92.52 nm | 109.4 nm | 105.7 ± 8.6 nm | 0.07 | 0.13 ± 0.02 | lower pKa | 90.3% | 95.4% | 93.1 ± 3.3% | 0.044 | 105.9 nm | 0.002 | 115.50 nm | 100.5% | 99.69% | 1 week | 5 weeks | CCCCCCCCC(CCCCCC)C(=O)OCCCCCCC(O)(CCCCCCOC(=O)C(CCCCCC)CCCCCCCC)CCCCOC(=O)C1CCN(C)CC1 (centres unmarked) [CL15F6] | equivalent in vivo F7 knockdown activity | 6.28E+06 Avg Radiance [p/s/cm2/sr] | period for which quality remained good, 25° C. [8]: 5 weeks; period for which quality remained good, 40° C. (weeks) [8]: 5 weeks

— US12458605B2, “Lipid nanoparticle” (National University Corporation Hokkaido University, priority 2020, dated 2025)
